Source: article PMC3898987 (Bioorganic & Medicinal Chemistry, 2013)
Substitutions are numbered along the chain they refer to.

Columns and labels:
[1] = molecular target: T1, 5-HT3AB receptor, 5-HT3B subunit Y143A (Homo sapiens, UniProt O95264+P46098, Y136A); assay: cell-based
T1 sequence (P46098 24-478): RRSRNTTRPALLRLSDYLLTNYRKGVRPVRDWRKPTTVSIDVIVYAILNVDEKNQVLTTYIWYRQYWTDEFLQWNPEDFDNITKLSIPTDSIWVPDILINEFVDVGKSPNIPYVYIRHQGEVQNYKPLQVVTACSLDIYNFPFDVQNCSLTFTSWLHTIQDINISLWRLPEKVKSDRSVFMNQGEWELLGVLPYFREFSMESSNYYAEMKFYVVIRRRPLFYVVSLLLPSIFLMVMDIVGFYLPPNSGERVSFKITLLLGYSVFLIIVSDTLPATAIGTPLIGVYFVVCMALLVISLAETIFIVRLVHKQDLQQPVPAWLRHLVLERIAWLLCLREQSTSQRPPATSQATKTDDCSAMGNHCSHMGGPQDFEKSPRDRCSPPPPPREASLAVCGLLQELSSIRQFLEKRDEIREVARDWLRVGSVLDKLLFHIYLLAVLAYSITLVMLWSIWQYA
T1 sequence (O95264 22-441 Y136A): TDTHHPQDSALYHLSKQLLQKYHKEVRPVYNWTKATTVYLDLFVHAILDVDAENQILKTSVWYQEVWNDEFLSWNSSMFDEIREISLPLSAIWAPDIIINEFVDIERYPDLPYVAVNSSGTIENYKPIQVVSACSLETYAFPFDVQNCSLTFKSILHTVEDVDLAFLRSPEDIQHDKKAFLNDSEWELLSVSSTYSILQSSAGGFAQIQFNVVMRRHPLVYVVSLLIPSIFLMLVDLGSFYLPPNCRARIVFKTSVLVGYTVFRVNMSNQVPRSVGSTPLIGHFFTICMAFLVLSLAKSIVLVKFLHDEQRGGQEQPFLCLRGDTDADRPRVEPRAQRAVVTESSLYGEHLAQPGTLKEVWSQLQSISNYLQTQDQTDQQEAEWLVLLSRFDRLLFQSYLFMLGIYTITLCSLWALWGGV
Experimental: (§1) For FlexStation assays, transfected cells were plated on 96-well plates and incubated 1–2 days before assay.
(§2) Fluorometric studies were undertaken using a FlexStation® (Molecular Devices, Sunnyvale, CA, USA) as previously described.[11]
(§3) Fluorescence was measured every 2 s for 200 s. […] Concentration–response and inhibition curves were obtained for each mutant, and the fluorescence values were normalized to the maximal response.

[2] = molecular target: T1, 5-HT3AB receptor, 5-HT3B subunit Y143A; assay: FlexStation membrane potential dye functional assay, HEK293 cells; conditions: 5-HT concentration-response, 5-HT3AB with 5-HT3B Y143A
Experimental: as §1, §2, §3

[3] = molecular target: T2, 5-HT3AB receptor, 5-HT3B subunit I183A (Homo sapiens, UniProt O95264+P46098, I176A); assay: as above; conditions: 5-HT concentration-response, 5-HT3AB with 5-HT3B I183A
T2 sequence (P46098 24-478): T1 sequence (P46098 24-478)
T2 sequence (O95264 22-441 I176A): T1 sequence (O95264 22-441 Y136A) with A115Y, I155A
Experimental: as §1, §2, §3

| Structure (SMILES) | IC50 [1] [nM] | Hill Coefficient [2] | Hill Coefficient [3] |
| --- | --- | --- | --- |
| O=C1c2cccc3c2[C@H](CCC3)CN1[C@@H]1CN2CCC1CC2 [Palonosetron] | 0.38 ± 0.05 |  |  |
| NCCc1c[nH]c2ccc(O)cc12 [5-HT, serotonin] |  | 1.3 ± 0.2 | 1.2 ± 0.2 |
